According to ChEMBL document CHEMBL4304764, “Identification of a RIP1 Kinase Inhibitor Clinical Candidate (GSK3145095) for the Treatment of Pancreatic Cancer” (ACS Med Chem Lett, 2019):

Experiments:
[1] = AUC (0 to infinity) in rat at 2 mg/kg, po; type: ADME, organism-based; design: dose 2 mg/kg, route oral, time infinity; conditions: in vivo
[2] = AUC in monkey at […], po; type: ADME, organism-based, Macaca mulatta; conditions: rhesus monkey, in vivo
[3] = Half life in rat at 1 mg/kg, iv; type: ADME, organism-based; conditions: in vivo
[4] = Cmax in rat at […], po; type: ADME, organism-based; design: dose 2.1 mg/kg, route oral; conditions: in vivo
[5] = Metabolic stability in monkey hepatocytes in presence of NADPH; type: ADME, cell-based, Macaca mulatta, Hepatocyte; conditions: rhesus monkey
[6] = Clearance in dog at 1.1 mg/kg, iv relative to liver blood flow; type: ADME, organism-based, Canis lupus familiaris; conditions: in vivo
[7] = AUC in rat at […], po; type: ADME, organism-based; conditions: in vivo
[8] = Clearance in rat at 1 mg/kg, iv relative to liver blood flow; type: ADME, organism-based; conditions: in vivo
[9] = Metabolic stability in human hepatocytes in presence of NADPH; type: ADME, cell-based, Hepatocyte
[10] = Clearance in dog at 1.1 mg/kg, iv; type: ADME, organism-based, Canis lupus familiaris; conditions: in vivo
[11] = Metabolic stability in rat hepatocytes in presence of NADPH; type: ADME, cell-based, Hepatocyte
[12] = in vivo; conditions: rat, po
[13] = AUC in dog at 2 mg/kg, po; type: ADME, organism-based, Canis lupus familiaris; conditions: in vivo
[14] = Clearance in monkey at […], iv relative to liver blood flow; type: ADME, organism-based, Macaca mulatta; conditions: rhesus monkey, in vivo
[15] = Volume of distribution at steady state in dog at 1.1 mg/kg, iv; type: ADME, organism-based, Canis lupus familiaris; conditions: in vivo, read-out: Vdss
[16] = in vivo; conditions: dog, po, 2 mg/kg
[17] = Half life in monkey at […], iv; type: ADME, organism-based, Macaca mulatta; conditions: rhesus monkey, in vivo
[18] = Chromatographic hydrophobicity index, log D of the compound at pH 7.4 by RP-HPLC analysis; type: physicochemical; conditions: buffer
[19] = Clearance in rat at 1 mg/kg, iv; type: ADME, organism-based; conditions: in vivo
[20] = Volume of distribution at steady state in rat at 1 mg/kg, iv; type: ADME, organism-based; conditions: in vivo, read-out: Vdss
[21] = Cmax in dog at 2 mg/kg, po; type: ADME, organism-based, Canis lupus familiaris; design: dose 2 mg/kg, route oral; conditions: in vivo

`O=C(N[C@H]1CCc2cc(F)cc(F)c2NC1=O)c1n[nH]c(Cc2ccccc2)n1` showed an AUC(0-inf) [1] of 1100 ng·h/mL, an AUC [2] of 4400 ng·h/mL and a half-life [3] of 132 min. The Cmax [4] was 320 ng/mL, the Stability [5] was “Stable” and the CL [6] was 18%. The AUC [7] was 1100 ng·h/mL, the CL [8] was 35% and the Stability [9] was “Stable”. For the same molecule, the clearance [10] was 9.8 mL/min/kg, the Stability [11] was “Stable” and the Tmax [12] was 49.8 min. The AUC [13] was 2500 ng·h/mL, the CL [14] was 15% and the Vd [15] was 1.1 L/kg. For the same molecule, the Tmax [16] was 45 min, the t1/2 [17] was 252 min and the logD [18] was 3.4. For the same molecule, the clearance [19] was 27 mL/min/kg, the Vd [20] was 1.8 L/kg and the Cmax [21] was 910 ng/mL.

Work on `CN1C(=O)[C@@H](NC(=O)c2n[nH]c(Cc3ccccc3)n2)CCc2ccccc21` yielded an AUC(0-inf) [1] of 310 ng·h/mL and a logD [18] of 3.8.

Molecule `O=C(N[C@H]1COc2ccccc2NC1=O)c1cc(Cc2ccccc2)on1` has a logD [18] of 5.1.

Molecule `O=C(N[C@H]1CCc2ccccc2NC1=O)c1n[nH]c(Cc2ccccc2)n1` has a logD [18] of 3.1.

For `O=C(N[C@H]1COc2ccccc2NC1=O)c1n[nH]c(Cc2ccccc2)n1`, the AUC(0-inf) [1] was 2500 ng·h/mL and the logD [18] was 3.

Work on `CN1C(=O)[C@@H](NC(=O)c2n[nH]c(Cc3ccccc3)n2)CCc2cc(F)cc(F)c21` yielded an AUC(0-inf) [1] of 160 ng·h/mL and a logD [18] of 4.3.
